The assay addresses Envelope glycoprotein gp160 (Human immunodeficiency virus 1, UniProt Q6QLK5). Description: inhibitors of HIV fusion peptide binding, primary screen, biochemical, uHTS, fluorescence dequenching (AID 1986).

Calls of active or inactive are those of the source. Cut-off read from the data, not from the text of the source: actives have a measured IC50 and inactives only a lower limit.

Envelope glycoprotein gp160, sequence (Q6QLK5 whole entry, the tested form may be a part): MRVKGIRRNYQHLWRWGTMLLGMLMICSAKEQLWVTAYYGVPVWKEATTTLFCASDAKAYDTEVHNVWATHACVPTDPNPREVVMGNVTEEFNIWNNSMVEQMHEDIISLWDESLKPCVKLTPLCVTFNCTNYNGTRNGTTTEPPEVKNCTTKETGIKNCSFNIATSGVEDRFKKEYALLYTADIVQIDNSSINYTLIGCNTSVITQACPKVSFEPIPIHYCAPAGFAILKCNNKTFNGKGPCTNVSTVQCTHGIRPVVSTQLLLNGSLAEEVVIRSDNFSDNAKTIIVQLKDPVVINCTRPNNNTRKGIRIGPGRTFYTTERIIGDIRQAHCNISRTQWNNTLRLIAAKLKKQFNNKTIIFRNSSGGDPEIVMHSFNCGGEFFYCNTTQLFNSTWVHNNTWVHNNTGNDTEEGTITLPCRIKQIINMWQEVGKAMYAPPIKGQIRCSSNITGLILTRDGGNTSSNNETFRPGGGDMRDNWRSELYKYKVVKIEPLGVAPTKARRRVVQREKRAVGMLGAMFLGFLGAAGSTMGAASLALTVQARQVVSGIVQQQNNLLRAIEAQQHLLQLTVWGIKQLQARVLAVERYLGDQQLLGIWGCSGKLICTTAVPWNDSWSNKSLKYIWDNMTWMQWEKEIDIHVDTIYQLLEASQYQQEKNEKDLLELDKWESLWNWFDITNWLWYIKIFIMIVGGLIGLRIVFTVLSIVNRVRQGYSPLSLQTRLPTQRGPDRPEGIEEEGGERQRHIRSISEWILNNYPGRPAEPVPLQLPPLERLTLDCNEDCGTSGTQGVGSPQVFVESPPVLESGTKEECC

In general, IC50 refers to the concentration needed to halve the response being measured. As for `O=C(O)CN1C(=O)/C(=C\c2cccc(OCc3ccc(Cl)cc3Cl)c2)SC1=S`, the IC50 is 13.1 µM (active).
For the compound `O=C(O)c1ccccc1NS(=O)(=O)c1ccc(NNC(=S)Nc2ccc(OC(F)F)cc2)c([N+](=O)[O-])c1`, the IC50 is 8.21 µM (active).

(Values after ChEMBL document CHEMBL1201862, “PubChem BioAssay data set” (2004).)
